According to PubChem BioAssay (NCI):
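GI50 marks 50% less growth. TGI is the concentration that stops growth completely.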

What was measured:
Assay in all cases: growth of human tumour cells (NCI), 384-well format
HCT-15 colon = test system: HCT-15 colon
KM12 colon = test system: KM12 colon
NCI-H522 lung = test system: NCI-H522 lung
U251 glioblastoma = test system: U251 glioblastoma
SK-OV-3 ovarian = test system: SK-OV-3 ovarian
SNB-19 CNS = test system: SNB-19 CNS
OVCAR-4 ovarian = test system: OVCAR-4 ovarian
A498 renal = test system: A498 renal
SF-295 CNS = test system: SF-295 CNS
RXF 393 renal = test system: RXF 393 renal
COLO 205 colon = test system: COLO 205 colon
OVCAR-3 ovarian = test system: OVCAR-3 ovarian
SNB-75 CNS = test system: SNB-75 CNS
786-0 renal = test system: 786-0 renal
SF-539 CNS = test system: SF-539 CNS
NCI-H226 lung = test system: NCI-H226 lung
UACC-257 melanoma = test system: UACC-257 melanoma
K-562 leukemia = test system: K-562 leukemia
HT29 colon = test system: HT29 colon
EKVX NSCLC = test system: EKVX NSCLC
MCF7 breast = test system: MCF7 breast
MOLT-4 leukemia = test system: MOLT-4 leukemia
OVCAR-5 ovarian = test system: OVCAR-5 ovarian
MDA-MB-468 breast = test system: MDA-MB-468 breast
A549 NSCLC = test system: A549 NSCLC
UACC-62 melanoma = test system: UACC-62 melanoma
OVCAR-8 ovarian = test system: OVCAR-8 ovarian
MALME-3M melanoma = test system: MALME-3M melanoma
HCT-116 colon = test system: HCT-116 colon
PC-3 prostate = test system: PC-3 prostate
SF-268 CNS = test system: SF-268 CNS
IGROV1 ovarian = test system: IGROV1 ovarian
SK-MEL-5 melanoma = test system: SK-MEL-5 melanoma
NCI-H322M lung = test system: NCI-H322M lung
T-47D breast = test system: T-47D breast
TK-10 renal = test system: TK-10 renal
UO-31 renal = test system: UO-31 renal
SN12C renal = test system: SN12C renal
MDA-MB-231 breast = test system: MDA-MB-231 breast
NCI-H460 NSCLC = test system: NCI-H460 NSCLC
HS 578T breast = test system: HS 578T breast
MDA-MB-435 melanoma = test system: MDA-MB-435 melanoma
SK-MEL-28 melanoma = test system: SK-MEL-28 melanoma
SW-620 colon = test system: SW-620 colon
BT-549 breast = test system: BT-549 breast
CAKI-1 renal = test system: CAKI-1 renal
ACHN renal = test system: ACHN renal
HOP-92 NSCLC = test system: HOP-92 NSCLC
M14 melanoma = test system: M14 melanoma
SK-MEL-2 melanoma = test system: SK-MEL-2 melanoma
HL-60(TB) leukemia = test system: HL-60(TB) leukemia
HOP-62 NSCLC = test system: HOP-62 NSCLC
SR leukemia = test system: SR leukemia

## C=CCNC1=C2C[C@@H](C)C[C@H](OC)[C@H](O)[C@@H](C)/C=C(\C)[C@H](OC(N)=O)[C@@H](OC)/C=C\C=C(/C)C(=O)NC(=CC1=O)C2=O
HCT-15 colon
  GI50: 51.9 nM
  TGI: 5340 nM
KM12 colon
  GI50: < 10 nM
  TGI: 11.5 nM
NCI-H522 lung
  GI50: 13.6 nM
  TGI: 47.4 nM
U251 glioblastoma
  GI50: 26.2 nM
  TGI: 167 nM
SK-OV-3 ovarian
  GI50: 14.8 nM
  TGI: 99.5 nM
SNB-19 CNS
  GI50: 50.8 nM
  TGI: 10800 nM
OVCAR-4 ovarian
  GI50: 158 nM
  TGI: 12000 nM
A498 renal
  GI50: 34.5 nM
  TGI: 12400 nM
SF-295 CNS
  GI50: 21.9 nM
  TGI: 121 nM
RXF 393 renal
  GI50: 16.5 nM
  TGI: 65.6 nM
COLO 205 colon
  GI50: < 10 nM
  TGI: 11 nM
OVCAR-3 ovarian
  GI50: 37.1 nM
  TGI: 447 nM
SNB-75 CNS
  GI50: 13.8 nM
  TGI: 73.8 nM
786-0 renal
  GI50: 65.7 nM
  TGI: 271 nM
SF-539 CNS
  GI50: 13.9 nM
  TGI: 36.1 nM
NCI-H226 lung
  GI50: 33.3 nM
  TGI: 440 nM
UACC-257 melanoma
  GI50: 27.4 nM
  TGI: 1350 nM
K-562 leukemia
  GI50: 27.6 nM
  TGI: 10300 nM
HT29 colon
  GI50: < 10 nM
  TGI: 10700 nM
EKVX NSCLC
  GI50: 44.8 nM
  TGI: 419 nM
MCF7 breast
  GI50: < 10 nM
  TGI: 41.6 nM
MOLT-4 leukemia
  GI50: 145 nM
  TGI: 336 nM
OVCAR-5 ovarian
  GI50: 59.2 nM
  TGI: 12600 nM
MDA-MB-468 breast
  GI50: 180 nM
  TGI: 733 nM
A549 NSCLC
  GI50: < 10 nM
  TGI: 10500 nM
UACC-62 melanoma
  GI50: 11.8 nM
  TGI: 53.5 nM
OVCAR-8 ovarian
  GI50: 42.2 nM
  TGI: 205 nM
MALME-3M melanoma
  GI50: < 10 nM
  TGI: 282 nM
HCT-116 colon
  GI50: 36.5 nM
  TGI: 8320 nM
PC-3 prostate
  GI50: 22.9 nM
  TGI: 124 nM
SF-268 CNS
  GI50: 27.4 nM
  TGI: 11100 nM
IGROV1 ovarian
  GI50: 27.1 nM
  TGI: 281 nM
SK-MEL-5 melanoma
  GI50: < 10 nM
  TGI: 2900 nM
NCI-H322M lung
  GI50: < 10 nM
  TGI: 10100 nM
T-47D breast
  GI50: 838 nM
  TGI: 6160 nM
TK-10 renal
  GI50: 35.7 nM
  TGI: 13500 nM
UO-31 renal
  GI50: 340 nM
  TGI: 12000 nM
SN12C renal
  GI50: 17.2 nM
  TGI: 255 nM
MDA-MB-231 breast
  GI50: 422 nM
  TGI: 2240 nM
NCI-H460 NSCLC
  GI50: < 10 nM
  TGI: 1610 nM
HS 578T breast
  GI50: < 10 nM
  TGI: 20.2 nM
MDA-MB-435 melanoma
  GI50: 34 nM
  TGI: 13700 nM
SK-MEL-28 melanoma
  GI50: 29.5 nM
  TGI: 15200 nM
SW-620 colon
  GI50: 16 nM
  TGI: 10900 nM
BT-549 breast
  GI50: < 10 nM
  TGI: 31.2 nM
CAKI-1 renal
  GI50: 140 nM
  TGI: 14700 nM
ACHN renal
  GI50: 83.2 nM
  TGI: 12000 nM
HOP-92 NSCLC
  GI50: 716 nM
  TGI: 3140 nM
M14 melanoma
  GI50: < 10 nM
  TGI: 11400 nM
SK-MEL-2 melanoma
  GI50: < 10 nM
  TGI: 112 nM
HL-60(TB) leukemia
  GI50: 31 nM
  TGI: 169 nM
HOP-62 NSCLC
  GI50: 20.4 nM
  TGI: 1750 nM
SR leukemia
  GI50: 11 nM
  TGI: 25.3 nM
